# System: normal human dermal fibroblasts (NHDF)
# Assay: Gene expression in NHDF, full transcriptome analysis with Affymetrix U219 microarray
# Format: cell-based
# Details: NHDF, 10 mg/ml, 24 h
# Protocol: In the present study, the transcriptional effects (modulation of gene expression) of compounds 1, 2, 3 and 4 were evaluated on normal human dermal fibroblasts (NHDF) under basal conditions.
# More specifically, the comparative analysis of the different transcriptomic profiles was performed using an Affymetrix GeneAtlas platform and the human “full transcriptome” U219 chip, which includes 36,000 transcripts and variants.
# Fibroblasts were seeded in 24-well plates and cultured in culture medium for 24 hours. The medium was then replaced by assay medium and cells were incubated for further 24 hours. The medium was replaced by assay medium containing or not (control) the test compounds at different concentrations and the cells were preincubated for 24 hours. All experimental conditions were performed in triplicate. At the end of incubation, the culture supernatants were removed and the cells were washed in a phosphate buffered saline (PBS) solution and immediately frozen at −80° C.
# Before RNA extraction, the replicates were pooled. Total RNA was extracted from each sample using TriPure Isolation Reagent® according to the supplier's instructions. The amount and quality of total RNA were evaluated for all samples using capillary electrophoresis (Bioanalyzer 2100, Agilent technologies). From each RNA, a labeled and amplified anti-sens RNA (aRNA) was obtained using GeneChip 3′IVT PLUS Kit (Affymetrix). For each labeled and amplified aRNA sample the profiles were evaluated before and after fragmentation using capillary electrophoresis (Bioanalyzer 2100, Agilent technologies). Hybridization of fragmented aRNA onto Affymetrix® U219 chip (36,000 transcripts and variants) was performed in the GeneAtlas™ fluidics Affymetrix® hybridization station for 20 hours at 45° C. U219 chip was analyzed using the GeneAtlas™ Imaging station (Affymetrix®—resolution 2 μm) to generate fluorescence intensity data.
# Expression Console and Quality controls: data were normalized with the Expression Console (Affymetrix®) software using RMA algorithm. Then a quality control of the labeling and the hybridization was performed. Hybridization and labeling steps successfully passed the quality controls for these experiments.
# Data reduction, Excel file description: once normalized with Expression Console, data were transferred into a Microsoft Excel® file in order to go further into data reduction.
# Calculation and tools were added in order to rank and sort data, and finally to support data interpretation. Detection thresholds in terms of fold change were defined and applied on normalized data.
# Results are considered and presented or commented per gene (and not probe). A probe set is a collection of probes designed to interrogate a given sequence of a gene. For data interpretation, the most important relative expression value obtained with one probe is considered to be representative of the corresponding gene. The file contains the following data: • Relative expression (RE) for each sample, • Fold change calculation, • Gene information.
# [1] = relative expression adjusted to detection limit (<20)
structure (smiles),measurement,setting,value
N[C@@H](CCCCNCC(F)(F)[C@]1(O)O[C@H](CO)[C@H](O)[C@H](O)[C@H]1O)C(=O)O [Compound 3],"Fold change, FADS1","vs control, Affymetrix probe set 11752670_a_at",3.55
same,"Fold change, TPP1","vs control, Affymetrix probe set 11753248_a_at",2.05
same,"Fold change, GBA///GBAP1","vs control, Affymetrix probe set 11753439_a_at",2.35
same,"Fold change, GBA","vs control, Affymetrix probe set 11753440_x_at",2.30
same,"Fold change, GBA///GBAP1","vs control, Affymetrix probe set 11754819_x_at",2.08
same,"Fold change, LPCAT3","vs control, Affymetrix probe set 11755123_x_at",2.13
same,"Fold change, FADS1","vs control, Affymetrix probe set 11755251_x_at",3.75
same,"Fold change, LPCAT3","vs control, Affymetrix probe set 11757008_a_at",2.39
same,"Fold change, TPP1","vs control, Affymetrix probe set 11757469_s_at",2.14
same,"Fold change, HSD17B14","vs control, Affymetrix probe set 11757575_x_at",2.92
same,"Fold change, TM7SF2","vs control, Affymetrix probe set 11762755_x_at",2.10
same,"REadj2, ACOT1///ACOT2",[1],462.96
same,"REadj2, APOD",[1],154.78
same,"REadj2, DHCR7",[1],1097.58
same,"REadj2, FADS2",[1],263.98
same,"REadj2, GBAP1",[1],186.37
same,"REadj2, HACD1",[1],674.65
same,"REadj2, HMGCS1",[1],1170.64
same,"REadj2, LRP8",[1],125.76
same,"REadj2, MVD",[1],534.91
same,"REadj2, NCOR1",[1],68.44
same,"REadj2, NEU1",[1],722.33
same,"REadj2, NPC1",[1],154.34
same,"REadj2, PHLDB2",[1],66.17
same,"REadj2, PHYH",[1],813.79
same,"REadj2, PLA2G15",[1],82.36
same,"REadj2, PLA2G16",[1],222.24
same,"REadj2, PRKAB2",[1],21.07
same,"REadj2, PTGDS",[1],1080.74
same,"REadj2, SOAT1",[1],393.50
same,"REadj2, SPHK1",[1],195.74
same,"REadj2, SREBF1",[1],312.15
same,"REadj2, TXNRD1",[1],1483.80
same,"REadj2, VAC14",[1],105.84
same,"REadj2, SCD","relative expression adjusted to detection limit (<20), Affymetrix probe set 11715561_s_at",634.95
same,"REadj2, SCD","relative expression adjusted to detection limit (<20), Affymetrix probe set 11715562_x_at",722.36
same,"REadj2, SCD","relative expression adjusted to detection limit (<20), Affymetrix probe set 11715563_s_at",558.17
same,"REadj2, G6PD","relative expression adjusted to detection limit (<20), Affymetrix probe set 11716292_a_at",348.08
same,"REadj2, G6PD","relative expression adjusted to detection limit (<20), Affymetrix probe set 11716293_x_at",239.53
same,"REadj2, INSIG1","relative expression adjusted to detection limit (<20), Affymetrix probe set 11716338_a_at",1101.68
same,"REadj2, INSIG1","relative expression adjusted to detection limit (<20), Affymetrix probe set 11716339_a_at",1249.89
same,"REadj2, PPT1","relative expression adjusted to detection limit (<20), Affymetrix probe set 11716533_a_at",249.91
same,"REadj2, EBP","relative expression adjusted to detection limit (<20), Affymetrix probe set 11717859_a_at",1025.83
same,"REadj2, HSD17B14","relative expression adjusted to detection limit (<20), Affymetrix probe set 11720588_a_at",154.64
same,"REadj2, SERINC2","relative expression adjusted to detection limit (<20), Affymetrix probe set 11721046_a_at",462.86
same,"REadj2, ME1","relative expression adjusted to detection limit (<20), Affymetrix probe set 11726265_at",1130.68
same,"REadj2, CHKA","relative expression adjusted to detection limit (<20), Affymetrix probe set 11736285_a_at",137.49
same,"REadj2, CHKA","relative expression adjusted to detection limit (<20), Affymetrix probe set 11736286_a_at",138.86
same,"REadj2, ASAH1","relative expression adjusted to detection limit (<20), Affymetrix probe set 11740582_a_at",1292.95
same,"REadj2, PPT1","relative expression adjusted to detection limit (<20), Affymetrix probe set 11742107_a_at",289.70
same,"REadj2, ASAH1","relative expression adjusted to detection limit (<20), Affymetrix probe set 11743547_a_at",1038.22
same,"REadj2, PCYT2","relative expression adjusted to detection limit (<20), Affymetrix probe set 11744044_s_at",239.50
same,"REadj2, FADS1","relative expression adjusted to detection limit (<20), Affymetrix probe set 11745459_a_at",1891.83
same,"REadj2, LDLR","relative expression adjusted to detection limit (<20), Affymetrix probe set 11746974_a_at",357.86
same,"REadj2, PCYT2","relative expression adjusted to detection limit (<20), Affymetrix probe set 11747322_s_at",216.32
same,"REadj2, LDLR","relative expression adjusted to detection limit (<20), Affymetrix probe set 11748045_x_at",380.34
same,"REadj2, SERINC2","relative expression adjusted to detection limit (<20), Affymetrix probe set 11748053_x_at",342.33
same,"REadj2, TM7SF2","relative expression adjusted to detection limit (<20), Affymetrix probe set 11748279_s_at",91.54
same,"REadj2, EBP","relative expression adjusted to detection limit (<20), Affymetrix probe set 11749332_x_at",907.86
same,"REadj2, ABHD4","relative expression adjusted to detection limit (<20), Affymetrix probe set 11749343_a_at",66.31
same,"REadj2, ABHD4","relative expression adjusted to detection limit (<20), Affymetrix probe set 11749376_a_at",69.48
same,"REadj2, ME1","relative expression adjusted to detection limit (<20), Affymetrix probe set 11750913_a_at",861.69
same,"REadj2, GBA","relative expression adjusted to detection limit (<20), Affymetrix probe set 11750975_x_at",250.68
same,"REadj2, GBA","relative expression adjusted to detection limit (<20), Affymetrix probe set 11751086_x_at",255.53
same,"REadj2, DHCR24","relative expression adjusted to detection limit (<20), Affymetrix probe set 11751337_a_at",191.39
same,"REadj2, DHCR24","relative expression adjusted to detection limit (<20), Affymetrix probe set 11751338_x_at",364.97
same,"REadj2, G6PD","relative expression adjusted to detection limit (<20), Affymetrix probe set 11752486_a_at",224.35
same,"REadj2, FADS1","relative expression adjusted to detection limit (<20), Affymetrix probe set 11752670_a_at",3012.88
same,"REadj2, GBA","relative expression adjusted to detection limit (<20), Affymetrix probe set 11753440_x_at",139.49
same,"REadj2, FADS1","relative expression adjusted to detection limit (<20), Affymetrix probe set 11755251_x_at",1908.34
same,"REadj2, HSD17B14","relative expression adjusted to detection limit (<20), Affymetrix probe set 11757575_x_at",89.08
same,"REadj2, TM7SF2","relative expression adjusted to detection limit (<20), Affymetrix probe set 11762755_x_at",61.24
